The values below come from patent US20200022995A1, “Novel Immunodulating Small Molecules” (AyuVis Research, Inc., priority 2018, published 2020).

As usually defined, the MIC90 is the lowest concentration that inhibits either 90% of growth or 90% of the strains tested, depending on the study. Low readings indicate greater potency, high ones weaker potency. As usually defined, the MIC is the least concentration at which growth counts as inhibited.

In brackets after ≈: the same amount, converted by molar mass.

In one series the target is T1, TLR1/2 (Homo sapiens, UniProt O60603).
T1 construct: downregulate the IL-6 protein level in hPBMC after 24 h; endogenous in cells; host or cells: hPBMC
Nature of the series: IL-6 ELISA in hPBMC with TLR1/2 ligand Pam3CSK4. It counts as cell-based. The conditions noted are these: 0.1 μM to <1 μM, 24 h. The text has this:
Compound 8 modulates the TLR1/2 activities in a concentration dependent manner.
For orientation: In an ELISA, binding on a coated surface is turned into a signal by an enzyme label.

The next series deals with T2, TLR9 (Homo sapiens, UniProt Q9NR96).
T2 construct: endogenous in cells; host or cells: hPBMC
T2 sequence (Q9NR96 26-1032): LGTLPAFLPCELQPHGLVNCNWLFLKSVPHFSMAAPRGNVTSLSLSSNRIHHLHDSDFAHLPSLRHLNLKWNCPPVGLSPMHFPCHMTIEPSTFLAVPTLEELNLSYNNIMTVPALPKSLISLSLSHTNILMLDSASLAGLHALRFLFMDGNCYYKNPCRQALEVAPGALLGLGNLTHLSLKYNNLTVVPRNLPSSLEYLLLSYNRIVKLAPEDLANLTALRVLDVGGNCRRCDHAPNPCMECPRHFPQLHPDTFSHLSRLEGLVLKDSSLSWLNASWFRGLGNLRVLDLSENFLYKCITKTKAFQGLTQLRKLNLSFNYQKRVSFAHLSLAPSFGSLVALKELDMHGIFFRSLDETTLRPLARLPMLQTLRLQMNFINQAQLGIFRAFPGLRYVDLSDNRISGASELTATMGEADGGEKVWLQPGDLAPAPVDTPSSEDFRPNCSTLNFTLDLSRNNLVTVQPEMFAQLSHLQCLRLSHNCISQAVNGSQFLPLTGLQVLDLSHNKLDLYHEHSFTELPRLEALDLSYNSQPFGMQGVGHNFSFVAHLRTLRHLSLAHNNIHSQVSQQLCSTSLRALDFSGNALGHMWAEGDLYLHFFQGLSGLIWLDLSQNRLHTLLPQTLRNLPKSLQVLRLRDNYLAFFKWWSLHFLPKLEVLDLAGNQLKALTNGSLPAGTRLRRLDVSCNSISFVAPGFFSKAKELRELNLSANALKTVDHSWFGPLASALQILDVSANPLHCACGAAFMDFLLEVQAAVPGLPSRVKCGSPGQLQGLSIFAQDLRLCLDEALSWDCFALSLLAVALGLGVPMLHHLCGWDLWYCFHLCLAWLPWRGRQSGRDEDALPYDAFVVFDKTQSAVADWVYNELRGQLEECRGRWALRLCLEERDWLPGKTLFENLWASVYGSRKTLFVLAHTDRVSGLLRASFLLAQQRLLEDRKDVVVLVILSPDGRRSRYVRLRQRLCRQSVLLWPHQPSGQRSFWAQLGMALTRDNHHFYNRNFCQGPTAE
Put plainly: IFN-α ELISA in hPBMC with TLR9 ligand ODN2216. It is filed as cell-based. The conditions noted are these: 48 h. How it is done: Compound 8 antagonizes the TLR9 activities and downregulates the production of IFN-α in combination with TLR9 ligand ODN2216 in hPBMC after 48 h of treatment as detected by ELISA (FIG. 11).

A further series has as its target T3, TLR6 (Homo sapiens, UniProt Q9Y2C9).
T3 construct: in combination with TLR6 ligand Pam2CSK4 in hPBMC after 24 h of treatment; endogenous in cells; host or cells: hPBMC
T3 sequence (Q9Y2C9 32-796): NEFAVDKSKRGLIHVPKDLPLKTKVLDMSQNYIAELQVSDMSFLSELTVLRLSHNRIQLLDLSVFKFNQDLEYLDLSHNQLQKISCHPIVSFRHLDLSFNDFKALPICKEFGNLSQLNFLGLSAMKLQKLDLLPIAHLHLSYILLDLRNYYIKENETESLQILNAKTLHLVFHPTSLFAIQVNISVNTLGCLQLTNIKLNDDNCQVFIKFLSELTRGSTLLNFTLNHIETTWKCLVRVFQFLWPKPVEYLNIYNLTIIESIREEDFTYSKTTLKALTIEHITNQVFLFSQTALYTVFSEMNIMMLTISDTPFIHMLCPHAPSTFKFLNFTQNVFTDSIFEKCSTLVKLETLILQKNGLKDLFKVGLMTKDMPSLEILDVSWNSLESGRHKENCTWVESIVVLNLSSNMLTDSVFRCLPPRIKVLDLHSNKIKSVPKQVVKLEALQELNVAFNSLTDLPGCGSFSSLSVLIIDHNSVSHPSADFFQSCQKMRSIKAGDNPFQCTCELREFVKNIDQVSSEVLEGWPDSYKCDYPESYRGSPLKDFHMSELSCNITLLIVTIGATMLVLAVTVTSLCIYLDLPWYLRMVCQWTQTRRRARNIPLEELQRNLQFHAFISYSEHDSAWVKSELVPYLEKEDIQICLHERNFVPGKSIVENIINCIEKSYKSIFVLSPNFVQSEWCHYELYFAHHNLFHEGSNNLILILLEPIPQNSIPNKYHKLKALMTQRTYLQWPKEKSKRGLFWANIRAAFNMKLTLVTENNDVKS
Nature of the series: IL-6 ELISA in hPBMC with TLR6 ligand Pam2CSK4. It is filed as cell-based. The conditions noted are these: 24 h. How it is done:
Compound 8 stimulates the TLR6 activities and upregulates the production of IL-6 cytokine in combination with TLR6 ligand Pam2CSK4 in hPBMC after 24 h of treatment as detected by ELISA (FIG. 9).

Series [1] deals with LPS-induced lung injury in mice. Nature of the series: LPS-induced ALI model. It is filed as in vivo, C57BL/6 mice. The conditions noted are these: IP. The text has this: Male C57BL/6 mice (Jackson Laboratories,) 12-15 weeks old, 25-28 gms, housed up to 5 per cage were used.
The lungs were sectioned for histopathological assessment after H/E staining while the BAL fluid was used to detect total cell counts (neutrophils and macrophages) and measure protein (that exudes by leakage).

A further series has as its system HUVECs. Nature of the series: Cytotoxicity in HUVECs (MTT). It counts as cell-based, human. The conditions noted are these: 100 μM, 24 h. How it is done:
Selected TLR2/4 antagonist compounds 2, 6, 7, 8, 14, 17 and 32 were evaluated for cytotoxicity in HUVECs at 100 μM concentration. The cells were treated with compounds and incubated for 24 h. Cell viability was assessed using MTT cell proliferation kit (Promega). All the compounds were not toxic to HUVECs (FIG. 15).

The test system of series [2] is E. coli, P. aeruginosa, A. baumanni, MRSA. Put plainly: Broth dilution assay against gram negative and gram positive bacteria. It counts as cell-based. On the technique in general: Dilution methods test growth across graded concentrations, often in twofold steps.
Another series concerns the target TLR4 (Homo sapiens, UniProt O00206). Put plainly: IL-1β ELISA in hPBMC, alone or with TLR4 ligand LPS. It is filed as cell-based. Further details: endogenous in cells. The text has this: Compound 8 modulates the TLR4 activities in a concentration dependent manner.

TLR4, sequence (O00206 24-839): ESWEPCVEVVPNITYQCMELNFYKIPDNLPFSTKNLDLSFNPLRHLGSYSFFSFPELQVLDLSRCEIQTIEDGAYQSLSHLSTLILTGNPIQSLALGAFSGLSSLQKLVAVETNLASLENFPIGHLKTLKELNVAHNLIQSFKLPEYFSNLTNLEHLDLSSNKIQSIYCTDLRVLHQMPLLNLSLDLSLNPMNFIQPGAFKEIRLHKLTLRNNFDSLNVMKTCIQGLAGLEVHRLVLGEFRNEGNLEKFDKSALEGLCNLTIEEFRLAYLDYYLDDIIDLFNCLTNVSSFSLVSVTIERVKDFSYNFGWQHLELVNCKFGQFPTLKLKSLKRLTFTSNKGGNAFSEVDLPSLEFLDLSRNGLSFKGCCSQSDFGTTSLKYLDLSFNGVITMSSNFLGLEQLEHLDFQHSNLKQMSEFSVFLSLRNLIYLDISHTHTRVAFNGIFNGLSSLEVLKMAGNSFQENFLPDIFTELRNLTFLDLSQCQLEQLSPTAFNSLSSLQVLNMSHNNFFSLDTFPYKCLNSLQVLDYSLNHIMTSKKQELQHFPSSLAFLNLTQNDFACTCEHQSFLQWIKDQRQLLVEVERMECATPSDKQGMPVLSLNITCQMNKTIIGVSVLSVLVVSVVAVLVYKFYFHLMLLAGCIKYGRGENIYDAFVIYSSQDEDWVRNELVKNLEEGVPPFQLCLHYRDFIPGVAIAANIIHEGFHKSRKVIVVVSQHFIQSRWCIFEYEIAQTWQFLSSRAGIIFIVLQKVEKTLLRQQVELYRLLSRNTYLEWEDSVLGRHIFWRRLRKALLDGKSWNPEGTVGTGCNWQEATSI
T1 sequence (O60603 21-784): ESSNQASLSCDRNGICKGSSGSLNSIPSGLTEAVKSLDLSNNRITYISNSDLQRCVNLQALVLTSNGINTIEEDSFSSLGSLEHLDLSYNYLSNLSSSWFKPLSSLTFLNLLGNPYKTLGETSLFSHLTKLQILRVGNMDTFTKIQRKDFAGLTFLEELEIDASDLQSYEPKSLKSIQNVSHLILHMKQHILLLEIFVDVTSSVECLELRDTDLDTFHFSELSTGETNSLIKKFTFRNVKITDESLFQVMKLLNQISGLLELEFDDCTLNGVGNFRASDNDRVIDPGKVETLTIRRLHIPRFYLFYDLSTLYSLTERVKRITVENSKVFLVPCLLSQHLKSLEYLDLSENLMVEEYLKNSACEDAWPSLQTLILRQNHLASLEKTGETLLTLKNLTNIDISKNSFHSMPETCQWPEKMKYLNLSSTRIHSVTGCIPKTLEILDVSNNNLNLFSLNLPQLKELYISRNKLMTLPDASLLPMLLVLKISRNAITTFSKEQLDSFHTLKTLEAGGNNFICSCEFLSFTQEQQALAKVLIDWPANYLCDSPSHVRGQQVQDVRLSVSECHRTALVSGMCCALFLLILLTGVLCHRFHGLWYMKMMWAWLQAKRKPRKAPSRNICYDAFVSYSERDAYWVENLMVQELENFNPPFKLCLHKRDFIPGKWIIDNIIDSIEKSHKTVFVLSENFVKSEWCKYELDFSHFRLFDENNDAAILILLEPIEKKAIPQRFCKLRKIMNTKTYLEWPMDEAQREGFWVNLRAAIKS

Take `CC(=O)N[C@H]1[C@H](Oc2ccc([N+](=O)[O-])cc2)O[C@H](CO)[C@@H](O)[C@@H]1O` [Compound 8, p-Nitrophenyl 2-acetamido-2-deoxy-β-D-glucopyranoside]: at TLR1/2, the IL-6 protein level entry is “downregulate”. The “production of IFN-α” value on TLR9 is recorded as “downregulates”. Besides, the “production of IL-6 cytokine” value at TLR6 is on record as “upregulates”. Further, the “protection against LPS induced lung injury” value in series [1] (10 mg/kg at 4 h and 12 h post LPS) is reported as “significant protection”. The LPS-induced lung inflammation result in series [1] (10 mg/kg, mice) is given as “ameliorated”. For the same compound, the “cytotoxicity in HUVECs” value in the series with HUVECs was “not toxic”. For the same compound, the MIC90 in series [2] (compound alone, range over the bacteria screened) was 50 to 200 µg/mL (≈ 146 to 584 µM). Besides, the MIC in series [2] (in combination with colistin) lay in the range of 3.1 to 6.25 µg/mL. In addition, the IL-1β protein level entry on TLR4 (0.1 μM to <1 μM, alone or with LPS, 24 h, ELISA) was “downregulate”. At TLR4 (1.0 μM, alone and with LPS), the “production of IL-1β” value is listed as “significantly stimulated”.
